Test results from patent publication US4843087A (priority 1986, dated 1989).
Values after ≈ are worked out from the molar mass of the structure shown.

Key:
Polio 2 = assay: microbe, parasite or virus in culture; format: cell-based, poliovirus; conditions: Enterovirus C, HeLa, read-out: Polio 2 MIC
[1] = test system: human rhinovirus (HRV) serotypes; assay: microbe, parasite or virus in culture; format: cell-based; conditions: for MIC50: read-out: Rhinovirus MIC50; for IC (MIC80 of serotype panel): read-out: Rhinovirus MIC80

Structure (SMILES)	MIC (Polio 2) [µg/mL]	MIC50 [1] [µg/mL]	IC (MIC80 of serotype panel) [1] [µg/mL]
Cc1cc(CCCCCCCOc2ccc(C3=NCCO3)c(Cl)c2)on1 [Example 50, 5-{7-[3-Chloro-4(4,5-dihydro-2-oxazolyl)phenoxy]heptyl}-3-methylisoxazole]	0.7 (≈ 1.86 µM)	5.05 (≈ 13.4 µM)	99
Cc1cc(CCCOc2c(Cl)cc(C3=NCCO3)cc2Cl)on1 [Example 115, 5-{3-[2,6-Dichloro-4-(4,5-dihydro-2-oxazolyl)phenoxy]propyl}-3-methylisoxazole]	3.1 (≈ 8.73 µM)	0.04 (≈ 0.113 µM)	0.58
Cc1cc(CCCCCCCOc2c(Cl)cc(C3=NCCO3)cc2Cl)on1 [Example 114, 5-{7-[2,6-Dichloro-4-(4,5-dihydro-2-oxazolyl)phenoxy]heptyl}-3-methylisoxazole]	0.48 (≈ 1.17 µM)	0.22 (≈ 0.535 µM)	0.62
Cc1cc(CCCCCOc2ccc(C3=NCCO3)cc2C(F)F)on1 [Example 84, 5-{5-[2-Difluoromethyl-4-(4,5-dihydro-2-oxazolyl)phenoxy]pentyl}-3-methylisoxazole]	0.11 (≈ 0.302 µM)	0.082 (≈ 0.225 µM)	0.72
Cc1cc(CCCCCOc2c(Cl)cc(C3=NCC(C)O3)cc2Cl)on1 (stereo not drawn) [Example 108, 5-{5-[2,6-Dichloro-4-(4,5-dihydro-5-methyl-2-oxazolyl)phenoxy]pentyl}-3-methylisoxazole]	2.6 (≈ 6.54 µM)	0.13 (≈ 0.327 µM)	0.34
COc1cc(C2=NCCO2)ccc1OCCCCCCCc1cc(C)no1 [41(b), 5-{7-[4-(4,5-Dihydro-2-oxazolyl)-2-methoxyphenoxy]heptyl}-3-methylisoxazole]	1 (≈ 2.68 µM)	0.55 (≈ 1.48 µM)	4
Cc1cc(CCCCCOc2c(F)cc(C3=NCCO3)cc2F)on1 [159(c), 5-{5-[4-(4,5-Dihydro-2-oxazolyl)-2,6-difluorophenoxy]-pentyl}-3-methylisoxazole]	0.12 (≈ 0.342 µM)	0.15 (≈ 0.428 µM)	0.66
Cc1cc(CCCCCOc2ccc(-c3nc(C)c(C)o3)cc2C)on1 [Example 90, 5-{5-[4-(4,5-Dimethyl-2-oxazolyl)-2-methylphenoxy]pentyl}-3-methylisoxazole]	1.5 (≈ 4.23 µM)	0.2 (≈ 0.564 µM)	0.49
Cc1cc(CCCOCOCCOc2ccc(C3=NCCO3)cc2C)on1 [Example 83, 5-{3-[[2-[4-(4,5-Dihydro-2-oxazolyl)-2-methylphenoxy]ethoxy]methoxy]propyl}-3-methylisoxazole]	5 (≈ 13.4 µM)	3.75 (≈ 10 µM)	99
Cc1cc(CCCCOc2ccc(C3=NCCO3)cc2Cl)on1 [Example 24, 5-{4-[2-Chloro-4-(4,5-dihydro-2-oxazolyl)phenoxy]butyl}-3-methylisoxazole]	1.7 (≈ 5.08 µM)	0.087 (≈ 0.26 µM)	1.2
Cc1cc(CCCCCOc2ccc(-c3nc(C)co3)cc2)on1 [Example 133, 5-{5-[4-(4-Methyl-2-oxazolyl)phenoxy]pentyl}-3-methylisoxazole]	0.09 (≈ 0.276 µM)	0.16 (≈ 0.49 µM)	0.68
Cc1cc(CCCCCCCOc2ccc(C3=NCCO3)c(O)c2)on1 [Example 59, 5-{7-[4-(4,5-Dihydro-2-oxazolyl)-3-hydroxyphenoxy]heptyl}-3-methylisoxazole]	0.04 (≈ 0.112 µM)	0.435 (≈ 1.21 µM)	25.2
C=Cc1cc(C2=NCCO2)ccc1OCCCCCc1cc(C)no1 [Example 141, 5-{5-[2-Ethenyl-4-(4,5-dihydro-2-oxazolyl)phenoxy]pentyl}-3-methylisoxazole]	0.23 (≈ 0.676 µM)	0.25 (≈ 0.734 µM)	0.54
Cc1cc(CCCCCOc2ccc(C3=NCCO3)c(Cl)c2)on1 [Example 47, 5-{5-[3-Chloro-4-(4,5-dihydro-2-oxazolyl)phenoxy]pentyl}-3-methylisoxazole]	0.02 (≈ 0.0573 µM)	0.36 (≈ 1.03 µM)	2.4
COc1cc(C2=NCCO2)cc(OC)c1OCCCCCc1cc(C)no1 [158(d), 5-{5-[4-(4,5-Dihydro-2-oxazolyl)-2,6-dimethoxyphenoxy]pentyl}-3-methylisoxazole]	1 (≈ 2.67 µM)	2.1 (≈ 5.61 µM)	5
Cc1cc(CCCCCOc2ccc(-c3nc(C)c(C)o3)cc2Cl)on1 [Example 134, 5-{5-[2-Chloro-4-(4,5-dimethyl-2-oxazolyl)phenoxy]pentyl}-3-methylisoxazole]	1.9 (≈ 5.07 µM)	0.29 (≈ 0.774 µM)	0.5
Cc1cc(CCCCCOc2ccc(C3=NCCO3)cc2C(=O)O)on1 [Example 86, 5-{5-[2-Carboxy-4-(4,5-dihydro-2-oxazolyl)phenoxy]pentyl}-3-methylisoxazole]	2.6 (≈ 7.25 µM)	99 (≈ 276 µM)	99
CC(=O)c1cc(C2=NCCO2)ccc1OCCCCCc1cc(C)no1 [Example 63, 5-{5-[4-(4,5-Dihydro-2-oxazolyl)-2-acetylphenoxy]pentyl}-3-methylisoxazole]	2.3 (≈ 6.45 µM)	0.55 (≈ 1.54 µM)	1.05

Structure (SMILES)	MIC (Polio 2) [µg/mL]	MIC50 [1] [µg/mL]	IC (MIC80 of serotype panel) [1] [µg/mL]
Cc1cc(CCCCCOc2c(C)cc(C3=NCCO3)cc2Cl)on1 [154(c), 5-{5-[2-Chloro-4-(4,5-dihydro-2-oxazolyl)-6-methylphenoxy]pentyl}-3-methylisoxazole]	0.8 (≈ 2.2 µM)	0.22 (≈ 0.606 µM)	0.33
Cc1cc(CCCCCCCOc2ccc(-c3nc(C)co3)cc2)on1 [Example 135, 5-{7-[4-(4-Methyl-2-oxazolyl)phenoxy]heptyl}-3-methylisoxazole]	2.6 (≈ 7.34 µM)	0.335 (≈ 0.945 µM)	0.6
Cc1cc(CCCCCOc2ccc(C3=NCC(CO)O3)cc2)on1 (stereo not drawn) [Example 75, 5-{5-[4-(4,5-Dihydro-5-hydroxymethyl-2-oxazolyl)phenoxyl]pentyl}-3-methylisoxazole]	0.69 (≈ 2 µM)	9.95 (≈ 28.9 µM)	35.2
Cc1cc(CCCCCOc2ccc(C3=NC(C)CO3)cc2Cl)on1 (stereo not drawn) [Example 32, 5-{5-[2-Chloro-4-(4,5-dihydro-4-methyl-2-oxazolyl)phenoxy]pentyl}-3-methylisoxazole]	1.3 (≈ 3.58 µM)	0.09 (≈ 0.248 µM)	0.27
Cc1cc(CCCCCOc2c(Br)cc(C3=NCCO3)cc2Br)on1 [Example 74, 5-{5-[2,6-Dibromo-4-(4,5-dihydro-2-oxazolyl)phenoxy]pentyl}-3-methylisoxazole]	2 (≈ 4.24 µM)	0.13 (≈ 0.275 µM)	0.59
Cc1cc(CCCCCCc2ccc(C3=NCCO3)cc2)on1 [Example 142]	0.37 (≈ 1.18 µM)	0.26 (≈ 0.832 µM)	6.2
Cc1cc(CCCCCCCOc2ccc(C3=NCCO3)cc2Br)on1 [Example 45, 5-{7-[2-Bromo-4(4,5-dihydro-2-oxazolyl)phenoxy]heptyl}-3-methylisoxazole]	0.5 (≈ 1.19 µM)	0.16 (≈ 0.38 µM)	0.7
CCN(CC)Cc1cc(CCCCCCCOc2ccc(C3=NCCO3)cc2)on1 [Example 137, 5-{7-[4-(4,5-Dihydro-2-oxazolyl)phenoxy]heptyl}-3-(diethylaminomethyl)isoxazole]	2 (≈ 4.84 µM)	3.25 (≈ 7.87 µM)	6.2
Cc1cc(CCCCCCCOc2ccc(C3=NCCO3)cc2C)on1 [31(b), 5-{7-[4-(4,5-Dihydro-2-oxazolyl)-2-methylphenoxy]heptyl}-3-methylisoxazole]	0.36 (≈ 1.01 µM)	0.15 (≈ 0.421 µM)	0.56
Cc1cc(CCCCCOc2ccc(-c3ncc(C)o3)cc2)on1 [93(f), 3-Methyl-5-{5-[4-(5-methyl-2-oxazolyl)phenoxy]pentyl}-isoxazole]	0.09 (≈ 0.276 µM)	0.09 (≈ 0.276 µM)	1.3
Cc1cc(CCCCOc2ccc(C3=NC(C)CO3)cc2)on1 (stereo not drawn) [Example 64, 5-{4-[4-(4,5-Dihydro-4-methyl-2-oxazoly)phenoxy]butyl}-3-methylisoxazole]	2.4 (≈ 7.63 µM)	0.485 (≈ 1.54 µM)	25.6
Cc1cc(CCCCC[S+]([O-])c2ccc(C3=NCCO3)cc2)on1 (stereo not drawn) [Example 104, 5-{5-[[4-(4,5-Dihydro-2-oxazolyl)phenyl]sulfinyl]pentyl}-3-methylisoxazole]	12.5 (≈ 36.1 µM)	9.85 (≈ 28.4 µM)	12.5
Cc1cc(CCCCCOc2ccc(C3=NCCO3)cc2C)on1 [Example 46, 5-{5-[4-(4,5-Dihydro-2-oxazolyl)-2-methylphenoxy]pentyl}-3-methylisoxazole]	0.1 (≈ 0.304 µM)	0.09 (≈ 0.274 µM)	0.2
Cc1cc(CCCCCOc2c(F)c(F)c(C3=NCCO3)c(F)c2F)on1 [161(c), 5-{5-[4-(4,5-Dihydro-2-oxazolyl)-2,3,5,6-tetrafluorophenoxy]pentyl}-3-methylisoxazole]	0.05 (≈ 0.129 µM)	0.25 (≈ 0.647 µM)	3.5
Cc1cc(CCCCCOc2ccc(C3=NCCO3)cc2C=O)on1 [Example 70, 5-{5-[4-(4,5-Dihydro-2-oxazolyl)-2-formylphenoxy]pentyl}-3-methylisoxazole]	0.1 (≈ 0.292 µM)	0.85 (≈ 2.48 µM)	1.6
Cc1cc(CCCCCOc2ccc(C3=NCCO3)cc2C(F)(F)F)on1 [Example 54, 5-{5-[4-(4,5-Dihydro-2-oxazolyl)-2-trifluoromethylphenoxy]pentyl}-3-methylisoxazole]	1.3 (≈ 3.4 µM)	0.08 (≈ 0.209 µM)	0.42
CCc1cc(C2=NCCO2)ccc1OCCCCCc1cc(C)no1 [Example 60, 5-{5-[4-(4,5-Dihydro-2-oxazolyl)-2-ethylphenoxy]pentyl}-3-methylisoxazole]	0.24 (≈ 0.701 µM)	0.1 (≈ 0.292 µM)	0.7
Cc1cc(CCCCCOc2c(C)cc(-c3cnco3)cc2C)on1 [97(b), 5-{5-[2,6-Dimethyl-4-(5-oxazolyl)phenoxy]pentyl}-3-methylisoxazole]	5.4 (≈ 15.9 µM)	0.135 (≈ 0.397 µM)	0.76
